Data reported in patent US9771372B2, “Compounds useful as S100-inhibitors” (Active Biotech AB, priority 2014, dated 2017).

What follows are molecules tested against T1, interaction between biotinylated human S100A9 and human RAGE-Fc (Homo sapiens, UniProt P06702) (assay: AlphaScreen inhibition assay, Biot-hS100A9:hRAGE-Fc (S100A9-RAGE inhibition assay)). Settings: biot-hS100A9 and rhRAGE-Fc, Ca2+ and Zn2+ in buffer.
T1 construct: made in house; host or cells: E. coli BL21(DE3)/pET1120 (pLR757)
T1 sequence (P06702 1-114): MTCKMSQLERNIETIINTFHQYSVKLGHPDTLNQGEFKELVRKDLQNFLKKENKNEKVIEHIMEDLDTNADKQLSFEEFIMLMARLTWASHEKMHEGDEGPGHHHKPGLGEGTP
Assay type: binding
Procedure, shortened: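 Biotinylated human S100A9, in HBS-P with CaCl2 and ZnCl2, preincubated 1 h at room temperature in the dark with compound (final DMSO ≤1.25%), then combined with rhRAGE-Fc on protein A Acceptor beads plus streptavidin Donor beads (20 μg/mL each). Protein levels batch-dependent; percent inhibition from AlphaScreen signal vs DMSO-only control.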

| Structure (SMILES) | IC50 [µM] |
| --- | --- |
| O=C(CCC1CCCC1)NC1(C(F)(F)F)C(=O)Nc2nc3c(Cl)cc(Cl)cc3n21 (stereo not shown) [Example 84, 3-cyclopentyl-N-[9,11-dichloro-4-oxo-3-(trifluoromethyl)-2,5,7-triazatricyclo[6.4.0.0^2,6]-dodeca-1(12),6,8,10-tetraen-3-yl]propanamide] | 1.4 |
| O=C(CCN1CCOCC1)NC1(C(F)(F)F)C(=O)Nc2nc3cc(Cl)c(Cl)cc3n21 (stereo not shown) [Example 61, N-[10,11-dichloro-4-oxo-3-(trifluoromethyl)-2,5,7-triazatricyclo[6.4.0.0^2,6]dodeca-1(12),6,8,10-tetraen-3-yl]-3-(morpholin-4-yl)propanamide] | 2.9 |
| O=C(NC1(C(F)(F)F)C(=O)Nc2nc3cc(Cl)c(Cl)cc3n21)[C@@H]1CCN(S(=O)(=O)C2CCCC2)C1 (stereo partly drawn) [Example 51, (3R)-1-(cyclopentanesulfonyl)-N-[10,11-dichloro-4-oxo-3-(trifluoromethyl)-2,5,7-triaza-tricyclo[6.4.0.0^2,6]dodeca-1(12),6,8,10-tetraen-3-yl]pyrrolidine-3-carboxamide] | 1.2 |
| O=C(CC1CCCCC1)NC1(C(F)(F)F)C(=O)Nc2nc3cc(F)c(F)cc3n21 (stereo not shown) [Example 74, 2-cyclohexyl-N-[10,11-difluoro-4-oxo-3-(trifluoromethyl)-2,5,7-triazatricyclo[6.4.0.0^2,6]-dodeca-1(8),6,9,11-tetraen-3-yl]acetamide] | 3.6 |
| O=C(NC1(C(F)(F)F)C(=O)Nc2nc3cc(Cl)c(Cl)cc3n21)C1CCN(C(=O)CC(F)(F)F)CC1 (stereo not shown) [Example 46, N-[10,11-dichloro-4-oxo-3-(trifluoromethyl)-2,5,7-triazatricyclo[6.4.0.0^2,6]dodeca-1(12),6,8,10-tetraen-3-yl]-1-(3,3,3-trifluoropropanoyl)piperidine-4-carboxamide] | 3.8 |
| O=C(CCC1CCCCC1)NC1(C(F)(F)F)C(=O)Nc2nc3cc(Cl)c(Cl)cc3n21 (stereo not shown) [Example 53, 3-cyclohexyl-N-[10,11-dichloro-4-oxo-3-(trifluoromethyl)-2,5,7-triazatricyclo[6.4.0.0^2,6]-dodeca-1(12),6,8,10-tetraen-3-yl]propanamide] | 0.7 |
| Cc1cc2nc3n(c2cc1C)C(NC(=O)CCC1CCCC1)(C(F)(F)F)C(=O)N3 (single isomer, unassigned) [Example 218b, 3-cyclopentyl-N-[10,11-dimethyl-4-oxo-3-(trifluoromethyl)-2,5,7-triazatricyclo[6.4.0.0^2,6]dodeca-1(12),6,8,10-tetraen-3-yl]propanamide] | 0.73 |
| O=C(CCC1CCCC1)NC1(C(F)(F)F)C(=O)Nc2nc3cc(Cl)c(Cl)cc3n21 (single isomer, unassigned) [Example 219b, 3-cyclopentyl-N-[10,11-dichloro-4-oxo-3-(trifluoromethyl)-2,5,7-triazatricyclo[6.4.0.0^2,6]dodeca-1(12),6,8,10-tetraen-3-yl]propanamide] | 0.23 |
| Cc1cc2nc3n(c2cc1C)C(NC(=O)CCC1CCCC1)(C(F)(F)F)C(=O)N3 (stereo not shown) [Example 27, 3-cyclopentyl-N-[10,11-dimethyl-4-oxo-3-(trifluoromethyl)-2,5,7-triazatricyclo[6.4.0.0^2,6]-dodeca-1(12),6,8,10-tetraen-3-yl]propanamide] | 0.4 |
| O=C(CCC1CCCC1)NC1(C(F)(F)F)C(=O)Nc2nc3c(C(=O)O)cccc3n21 (stereo not shown) [Example 160, 3-(3-cyclopentylpropanamido)-4-oxo-3-(trifluoromethyl)-2,5,7-triazatricyclo[6.4.0.0^2,6]dodeca-1(12),6,8,10-tetraene-9-carboxylic acid] | 0.74 |
| O=C(CCC1CCCC1)NC1(C(F)(F)F)C(=O)Nc2nc3c(C(=O)O)cccc3n21 (single isomer, unassigned) [Example 231b, 3-(3-cyclopentylpropanamido)-4-oxo-3-(trifluoromethyl)-2,5,7-triazatricyclo[6.4.0.0^2,6]dodeca-1(12),6,8,10-tetraene-9-carboxylic acid] | 0.84 |
| O=C(CCC1CCCC1)NC1(C(F)(F)F)C(=O)Nc2nc3cc(Cl)c(Cl)cc3n21 (stereo not shown) [Example 39, 3-cyclopentyl-N-[10,11-dichloro-4-oxo-3-(trifluoromethyl)-2,5,7-triazatricyclo[6.4.0.0^2,6]-dodeca-1(12),6,8,10-tetraen-3-yl]propanamide] | 0.5 |

The remaining lines, values ahead:

| IC50 [µM] | Structure (SMILES) |
| --- | --- |
| 0.94 | COc1ccc(-c2cccc3c2nc2n3C(NC(=O)CCC3CCCC3)(C(F)(F)F)C(=O)N2)cn1 (stereo not shown) [Example 188, 3-cyclopentyl-N-[9-(6-methoxypyridin-3-yl)-4-oxo-3-(trifluoromethyl)-2,5,7-triazatricyclo[6.4.0.0^2,6]dodeca-1(12),6,8,10-tetraen-3-yl]propanamide] |
| 1.47 | O=C(CCC1CCCC1)NC1(C(F)(F)F)C(=O)Nc2nc3c(OC(F)(F)F)cccc3n21 (stereo not shown) [Example 164, 3-cyclopentyl-N-[4-oxo-9-(trifluoromethoxy)-3-(trifluoromethyl)-2,5,7-triazatricyclo[6.4.0.0^2,6]dodeca-1(12),6,8,10-tetraen-3-yl]propanamide] |
| 5.39 | Cc1cc2nc3n(c2cc1C)C(NC(=O)[C@@H](O)c1ccccc1)(C(F)(F)F)C(=O)N3 (single isomer, unassigned) [Example 146a] |
| 1.45 | COC[C@H](C)Nc1cccc(C(=O)NC2(C(F)(F)F)C(=O)Nc3nc4c(C#N)c(Cl)ccc4n32)n1 (mixture of isomers) [Example 140, N-[10-chloro-9-cyano-4-oxo-3-(trifluoromethyl)-2,5,7-triaza-tricyclo[6.4.0.0^2,6]dodeca-1(8),6,9,11-tetraen-3-yl]-6-{[(2S)-1-methoxypropan-2-yl]amino}-pyridine-2-carboxamide] |
| 1.82 | COCCNc1nc(C(=O)NC2(C(F)(F)F)C(=O)Nc3nc4cc(C)c(C)cc4n32)cs1 (stereo not shown) [Example 119, N-[10,11-dimethyl-4-oxo-3-(trifluoromethyl)-2,5,7-triazatricyclo[6.4.0.0^2,6]dodeca-1(8),6,9,11-tetraen-3-yl]-2-[(2-methoxyethyl)amino]-1,3-thiazole-4-carboxamide] |
| 1.93 | COCCNc1cccc(C(=O)NC2(C(F)(F)F)C(=O)Nc3nc4cc(C)c(C)cc4n32)n1 (single isomer, unassigned) [Example 220a, N-[10,11-dimethyl-4-oxo-3-(trifluoromethyl)-2,5,7-triazatricyclo[6.4.0.0^2,6]dodeca-1(12),6,8,10-tetraen-3-yl]-6-[(2-methoxyethyl)amino]pyridine-2-carboxamide] |
| 0.8 | O=C(CCc1ccccc1)NC1(C(F)(F)F)C(=O)Nc2nc3cc(Cl)c(Cl)cc3n21 (stereo not shown) [Example 37, N-[10,11-dichloro-4-oxo-3-(trifluoromethyl)-2,5,7-triazatricyclo[6.4.0.0^2,6]dodeca-1(8),6,9,11-tetraen-3-yl]-3-phenylpropanamide] |
| 1.3 | O=C(NC1(C(F)(F)F)C(=O)Nc2nc3cc(Cl)c(Cl)cc3n21)c1cccc(OCC(F)(F)F)n1 (stereo not shown) [Example 64, N-[10,11-dichloro-4-oxo-3-(trifluoromethyl)-2,5,7-triazatricyclo[6.4.0.0^2,6]dodeca-1(12),6,8,10-tetraen-3-yl]-6-(2,2,2-trifluoroethoxy)pyridine-2-carboxamide] |
| 0.92 | CCCC(=O)NC1(C(F)(F)F)C(=O)Nc2nc3c(-c4ccc(OC)cc4)cccc3n21 (stereo not shown) [Example 234, N-[9-(4-methoxyphenyl)-4-oxo-3-(trifluoromethyl)-2,5,7-triazatricyclo[6.4.0.0^2,6]dodeca-1(12),6,8,10-tetraen-3-yl]butanamide] |
| 2.6 | O=C(CCC1CCCC1)NC1(C(F)(F)F)C(=O)Nc2nc3c(Cl)cccc3n21 (stereo not shown) [Example 85, N-[9-chloro-4-oxo-3-(trifluoromethyl)-2,5,7-triazatricyclo[6.4.0.0^2,6]dodeca-1(12),6,8,10-tetraen-3-yl]-3-cyclopentylpropanamide] |
| 1.5 | CC(=O)c1cccc2c1nc1n2C(NC(=O)CCC2CCCC2)(C(F)(F)F)C(=O)N1 (stereo not shown) [Example 122, N-[9-acetyl-4-oxo-3-(trifluoromethyl)-2,5,7-triazatricyclo[6.4.0.0^2,6]dodeca-1(12),6,8,10-tetraen-3-yl]-3-cyclopentylpropanamide] |
| 1.3 | Cc1cc2nc3n(c2cc1C)C(NC(=O)CCc1ccccc1Cl)(C(F)(F)F)C(=O)N3 (stereo not shown) [Example 16, 3-(2-chlorophenyl)-N-[10,11-dimethyl-4-oxo-3-(trifluoromethyl)-2,5,7-triazatricyclo-[6.4.0.0^2,6]dodeca-1(8),6,9,11-tetraen-3-yl]propanamide] |
| 1.81 | CC(C)CNc1nc(C(=O)NC2(C(F)(F)F)C(=O)Nc3nc4cc(Cl)c(Cl)cc4n32)cs1 (stereo not shown) [Example 237, N-[10,11-dichloro-4-oxo-3-(trifluoromethyl)-2,5,7-triazatricyclo[6.4.0.0^2,6]dodeca-1(12),6,8,10-tetraen-3-yl]-2-[(2-methylpropyl)amino]-1,3-thiazole-4-carboxamide] |
| 6.41 | Cc1cc2nc3n(c2cc1C)C(NC(=O)[C@@H](C)c1ccccc1)(C(F)(F)F)C(=O)N3 (single isomer, unassigned) [Example 144] |
| 0.26 | O=C(NC1(C(F)(F)F)C(=O)Nc2nc3cc(Cl)c(Cl)cc3n21)c1cccc(NCCO)n1 (stereo not shown) [Example 91, N-[10,11-dichloro-4-oxo-3-(trifluoromethyl)-2,5,7-triazatricyclo[6.4.0.0^2,6]dodeca-1(8),6,9,11-tetraen-3-yl]-6-[(2-hydroxyethyl)amino]pyridine-2-carboxamide] |
| 1.1 | O=C(NC1(C(F)(F)F)C(=O)Nc2nc3cc(Cl)c(Cl)cc3n21)c1cccc(Cl)n1 (stereo not shown) [Example 62, 6-chloro-N-[10,11-dichloro-4-oxo-3-(trifluoromethyl)-2,5,7-triazatricyclo[6.4.0.0^2,6]-dodeca-1(12),6,8,10-tetraen-3-yl]pyridine-2-carboxamide] |
